Reference: patent US7115690B2, “Fluorine-containing polymer, resist composition prepared from same and novel fluorine-containing monomer” (Daikin Industries, Ltd., priority 2001, dated 2006)
Where “and” joins values, the source holds several entries; their conditions need not be identical. Equal values may be shown once.

Columns and labels:
[1] = Measurement of pKa value by NaOH titration in water/acetone; settings: for pKa: water/acetone mixture (10/15 ml)
Method: (§1) In a water/acetone mixture (10/15 ml) solution was put 0.4045 g of the above-mentioned cyclopentene derivative, followed by stirring at room temperature. After it was confirmed that the solution became homogeneous, titration was carried out with about 0.2 mol/liter NaOH solution. A titration curve was obtained by adding a NaOH solution dropwise in increments of 0.15 ml and recording a pH value at every addition. An equivalence point was determined by an inflection point (maximum differential value of titration curve=dpH/dml) of the titration curve. […] From a titration curve of water/acetone solution and aqueous solution which had been measured previously as a blank solution, a difference in a pH value derived from an electric potential difference between the solutions at titration of 4.0 ml was 1.50.

[2] = physchem; settings: (2) pKa
Method: as §1

[3] = (2) pKa, titration with about 0.2 mol/liter NaOH in water/acetone, corrected with blank
[4] = titration with about 0.2 mol/liter NaOH in water/acetone, corrected with blank

OC1(C(F)(F)F)C2C=CC(C2)C1(F)F (centres unmarked)
pKa [1, 3]: 11.5

OC(C(F)(F)F)(C(F)(F)F)C1(F)CC2C=CC1C2 (centres unmarked)
pKa [1, 3]: 9

OC(C1CC2C=CC1C2)(C(F)(F)F)C(F)(F)F (centres unmarked)
pKa [1, 3]: 10.2

OC(C(F)(F)F)C(F)(F)F [CF3CH(CF3)—OH, reference compound]
(2) pKa [1, 4]: 9.3

CH2═CF—C(CF3)2OH [reference compound]
(2) pKa [1, 4]: 8.0

OC(C1C=CCC1)(C(F)(F)F)C(F)(F)F (centres unmarked) [Example 12, cyclopentene having —C(CF3)2OH group]
pKa value (single titration) ([1]; individual titrations of 0.4045 g, 0.8104 g and 0.9812 g in water/acetone (10/15 ml), listed as cyclopentene derivative having —C(CF3)2OH group): 9.95 and 9.86
pKa [1, 3]: 9.8
pKa ([1]; pKa value (single titration), individual titrations of 0.4045 g, 0.8104 g and 0.9812 g in water/acetone (10/15 ml)): 9.62

OC(C(F)(F)F)(C(F)(F)F)C1(F)C2C=CC(C2)C1(F)F (centres unmarked)
pKa [2]: 8.3

CH2═CHCH2C(CF3)2OH [reference compound]
(2) pKa [1, 4]: 9.6

CF2═CF—C(CF3)2OH [reference compound]
(2) pKa [1, 4]: 7.1
